Measured values: patent publication US20210046071A1, “TETRACYCLIC COMPOUNDS AND THEIR SALTS, COMPOSITIONS, AND METHODS FOR THEIR USE” (Senhwa Biosciences, Inc., priority 2019, published 2021)
Like-named read-outs stand apart in the source and are kept apart here.

Assay: Pharmacokinetic studies in human, Compound I in plasma by LC/MS/MS
Format: in vivo
Details: for Cmax / Tmax / AUC(0-inf) / half-life / Vd / clearance: human, plasma
Description: Pharmacokinetic studies and dose escalation studies were conducted in adult patients with metastatic, recurrent, locally, advanced, or unresectable solid malignancy (patients with histologically and/or cytologically confirmed solid malignancy), who received prior anti-cancer treatment(s) until disease progression, at 10 different dose levels of Compound I. Groups 1-7 were administered intravenously on days 1 and 8 of a 4-week cycle at 50, 100, 150, 200, 250, 325, and 475 mg/m^2 (lyophilized formulation), respectively. Groups 8-10 were administered intravenously on days 1,8, and 15 of a 4-week cycle at 325, 475, and 650 mg/m^2 (lyophilized formulation), respectively. Each patient received each dose over 1 hour by IV infusion on days described above.
They lyophilized formulation was reconstituted with 5% glucose in sterile water, or similar biologically acceptable fluid, for IV infusion.
For patients in Groups 1-7, blood samples were typically collected at Day 1 at pre-infusion (t=−1 h), during infusion at about 30 minutes (t=−0.5 h), immediately post infusion (t=0 h), 30 min post-infusion, 1 h post-infusion, 2 h post-infusion, 4 h post-infusion, and 6 h post-infusion, as well as at about 24 h post-infusion, 48 h post-infusion, and 72 h post-infusion. On Day 8, blood samples were typically collected at pre-infusion (t=−1 h), during infusion at about 30 minutes (t=−0.5 h), immediately post infusion (t=0 h), 30 min post-infusion, 1 h post-infusion, 2 h post-infusion, 4 h post-infusion, and 6 h post-infusion, as well as at about 24 h post-infusion, and 168 h post-infusion (Day 15).
For patients in Groups 8-10, blood samples were typically collected at Day 1 at pre-infusion (t=−1 h), during infusion at about 30 minutes (t=−0.5 h), immediately post infusion (t=0 h), 30 min post-infusion, 1 h post-infusion, 2 h post-infusion, 4 h post-infusion, and 6 h post-infusion, as well as at about 24 h post-infusion, 48 h post-infusion, and 72 h post-infusion. On Day 8, blood samples were typically collected at pre-infusion (t=−1 h). On Day 15, blood samples were typically collected at pre-infusion (t=−1 h), during infusion at about 30 minutes (t=−0.5 h), immediately post infusion (t=0 h), 30 min post-infusion, 1 h post-infusion, 2 h post-infusion, 4 h post-infusion, and 6 h post-infusion, as well as at about 24 h post-infusion, and 168 h post-infusion (Day 22).
Levels of Compound I in patient's plasma were analyzed by liquid chromatography tandem mass spectrometry (LC/MS/MS) assay. Experimental procedures of the validated methods are summarized below. The pharmacokinetic parameters after first dose and second dose for Groups 1-7 and after first dose and third dose for Groups 8-10 are shown in Tables 2A-2J. In Tables 2A-2J: SD=standard deviation; Cmax=maximum observed concentration; D=dose; Tmax=time to maximum observed concentration; T1/2=elimination half-life; Vd=volume of distribution; CL=drug clearance; and AUC∞=area under the concentration-time curve from time zero to infinity (total exposure).
The concentrations of Compound I in human plasma samples collected from subjects of as discussed above. Compound I concentrations in plasma samples were measured based on 9 levels of calibration standards from 5.00 to 5000 ng/mL, and 3 levels of QC at 15.0 ng/mL (low), 2500 ng/mL (mid), and 4000 ng/mL (high).
Two reference standard master stock solutions of Compound I were prepared by dissolving the Compound 1 reference standard with 50:50:0.1 ACN:diH2O:FA (v/v/v) and sonicating for 7 minutes (diH2O=deionized water). The resulting solutions were further diluted with 50:50:0.1 ACN:diH2O:FA (v/v/v) into a series of working stock solutions (WSS) for spiking of Compound I calibration standards and QC samples. The master stock solutions were prepared fresh on the day of assay, or stored at nominal 2° C. to 8° C. for later use. Master stock solutions were used within the stability timeframe. […]

[1] = Group 1, 50 mg/m^2 IV, Day 1, mean, n = 4
[2] = Group 1, 50 mg/m^2 IV, Day 8, mean, n = 3
[3] = Group 2, 100 mg/m^2 IV, Day 8, mean, n = 3
[4] = Group 3, 150 mg/m^2 IV, Day 1, mean, n = 4
[5] = Group 3, 150 mg/m^2 IV, Day 8, mean, n = 4
[6] = Group 4, 200 mg/m^2 IV, Day 1, mean, n = 4
[7] = Group 4, 200 mg/m^2 IV, Day 8, mean, n = 4
[8] = Group 5, 250 mg/m^2 IV, Day 1, mean, n = 3
[9] = Group 5, 250 mg/m^2 IV, Day 8, mean, n = 3
[10] = Group 6, 325 mg/m^2 IV, Day 1, mean, n = 3
[11] = Group 6, 325 mg/m^2 IV, Day 8, mean, n = 3
[12] = Group 7, 475 mg/m^2 IV, Day 1, mean, n = 3
[13] = Group 7, 475 mg/m^2 IV, Day 8, mean, n = 3
[14] = Group 9, 475 mg/m^2 IV, Day 1, mean, n = 5
[15] = Group 10, 650 mg/m^2 IV, Day 1, mean, n = 5
[16] = Group 10, 650 mg/m^2 IV, Day 15, mean, n = 5
[17] = intravenous, Groups 8-10, Day 1, range of group means
[18] = iv, 50 mg/m2, Group 1, 50 mg/m^2 IV, Day 1, mean, n = 4
[19] = iv, 50 mg/m2, Group 1, 50 mg/m^2 IV, Day 8, mean, n = 3
[20] = iv, 100 mg/m2, Group 2, 100 mg/m^2 IV, Day 1, mean, n = 4
[21] = iv, 100 mg/m2, Group 2, 100 mg/m^2 IV, Day 8, mean, n = 3
[22] = iv, 150 mg/m2, Group 3, 150 mg/m^2 IV, Day 1, mean, n = 4

Cc1cnc(CNC(=O)c2c(=O)c3ccc(N4CCCN(C)CC4)nc3n3c2sc2ccccc23)cn1 [Compound I, 2-(4-Methyl-[1,4]diazepan-1-yl)-5-oxo-5H-7-thia-1,11b-diaza-benzo[c]fluorene-6-carboxylic acid (5-methyl-pyrazin-2-ylmethyl)-amide]
AUC∞/D [1]: 170 ng·h/mL/mg | Cmax/D [1]: 8.14 ng/mL/mg | AUC∞/D [2]: 94.9 ng·h/mL/mg | Cmax/D [2]: 7.23 ng/mL/mg | AUC∞/D (Group 2, 100 mg/m^2 IV, Day 1, mean, n = 3): 38.3 ng·h/mL/mg | Cmax/D (Group 2, 100 mg/m^2 IV, Day 1, mean, n = 4): 5.94 ng/mL/mg | AUC∞/D [3]: 47.4 ng·h/mL/mg | Cmax/D [3]: 3.97 ng/mL/mg | AUC∞/D [4]: 84.5 ng·h/mL/mg | Cmax/D [4]: 5.43 ng/mL/mg | AUC∞/D [5]: 91.1 ng·h/mL/mg | Cmax/D [5]: 5.49 ng/mL/mg | AUC∞/D [6]: 42.7 ng·h/mL/mg | Cmax/D [6]: 26.9 ng/mL/mg | AUC∞/D [7]: 44.5 ng·h/mL/mg | Cmax/D [7]: 3.27 ng/mL/mg | AUC∞/D [8]: 48.0 ng·h/mL/mg | Cmax/D [8]: 3.15 ng/mL/mg | AUC∞/D [9]: 64.6 ng·h/mL/mg | Cmax/D [9]: 1.87 ng/mL/mg | AUC∞/D [10]: 46.9 ng·h/mL/mg | Cmax/D [10]: 2.14 ng/mL/mg | AUC∞/D [11]: 57.8 ng·h/mL/mg | Cmax/D [11]: 2.09 ng/mL/mg | AUC∞/D [12]: 44.0 ng·h/mL/mg | Cmax/D [12]: 2.48 ng/mL/mg | AUC∞/D [13]: 44.1 ng·h/mL/mg | Cmax/D [13]: 2.15 ng/mL/mg | AUC∞/D (Group 8, 325 mg/m^2 IV, Day 1, mean, n = 3): 52.1 ng·h/mL/mg | Cmax/D (Group 8, 325 mg/m^2 IV, Day 1, mean, n = 4): 2.04 ng/mL/mg | Cmax/D (Group 8, 325 mg/m^2 IV, Day 15, mean, n = 4): 35.5 ng/mL/mg | AUC∞/D [14]: 42.7 ng·h/mL/mg | Cmax/D [14]: 2.01 ng/mL/mg | AUC∞/D (Group 9, 475 mg/m^2 IV, Day 15, mean, n = 4): 39.8 ng·h/mL/mg | Cmax/D (Group 9, 475 mg/m^2 IV, Day 15, mean, n = 5): 3.34 ng/mL/mg | AUC∞/D [15]: 46.5 ng·h/mL/mg | Cmax/D [15]: 2.61 ng/mL/mg | AUC∞/D [16]: 48.6 ng·h/mL/mg | Cmax/D [16]: 3.44 ng/mL/mg | Plasma kinetic behavior (all dose levels, Groups 1-10): semi-logarithmic biphasic kinetic behavior | Cmax (intravenous, 200 mg/m2, Groups 1-7, Day 1, range of group means (200 mg/m^2 outlier apart)): 728 to 1940 ng/mL | Cmax (intravenous, 325 mg/m2, Groups 8-10, Day 15, range of group means (325 mg/m^2 outlier apart)): 2870 to 4170 ng/mL | Tmax (intravenous, Groups 1-7, 50 to 475 mg/m^2, Day 1, range of group means): 0.508 to 1.19 h | AUC(0-inf) (intravenous, Groups 1-7, Day 1, range of group means, read-out: Total exposures (AUC∞)): 6650 to 36200 ng·h/mL | half-life (intravenous, Groups 1-7, Day 1 dose, range of group means, read-out: Apparent elimination half-lives): 37.3 to 81.8 h | Cmax (intravenous, Groups 1-7, Day 8, range of group means): 642 to 1710 ng/mL | AUC(0-inf) (intravenous, Groups 1-7, Day 8, range of group means, read-out: Total exposures (AUC∞)): 9120 to 35400 ng·h/mL | half-life (intravenous, Groups 1-7, Day 8 dose, range of group means, read-out: Apparent elimination half-lives): 42.6 to 96.9 h | Cmax [17]: 1140 to 3080 ng/mL | Tmax [17]: 0.767 to 1.18 h | AUC(0-inf) (intravenous, Groups 8-10, Day 1, range of group means, read-out: Total exposures (AUC∞)): 29100 to 57500 ng·h/mL | half-life (intravenous, Groups 8-10, Day 1 dose, range of group means, read-out: Apparent elimination half-lives): 61.5 to 122 h | AUC(0-inf) (intravenous, Groups 8-10, Day 15, range of group means, read-out: Total exposures (AUC∞)): 32500 to 62200 ng·h/mL | half-life (intravenous, Groups 8-10, Day 15 dose, range of group means, read-out: Apparent elimination half-lives): 59 to 93.6 h | Cmax [18]: 728 ng/mL | Tmax [18]: 0.758 h | Vd [18]: 866 L | clearance [18]: 265 mL/min | AUC(0-inf) (iv, 50 mg/m2, Group 1, 50 mg/m^2 IV, Day 1, mean, n = 4, read-out: AUC∞): 16300 ng·h/mL | half-life (iv, 50 mg/m2, Group 1, 50 mg/m^2 IV, Day 1, mean, n = 4, read-out: T1/2 (converted)): 60.1 h | Cmax [19]: 642 ng/mL | Tmax [19]: 1.01 h | Vd [19]: 752 L | clearance [19]: 275 mL/min | AUC(0-inf) (iv, 50 mg/m2, Group 1, 50 mg/m^2 IV, Day 8, mean, n = 3, read-out: AUC∞): 9120 ng·h/mL | half-life (iv, 50 mg/m2, Group 1, 50 mg/m^2 IV, Day 8, mean, n = 3, read-out: T1/2 (converted)): 42.6 h | Vd (iv, 100 mg/m2, Group 2, 100 mg/m^2 IV, Day 1, mean, n = 3): 1400 L | AUC(0-inf) (iv, 100 mg/m2, Group 2, 100 mg/m^2 IV, Day 1, mean, n = 3, read-out: AUC∞): 6650 ng·h/mL | half-life (iv, 100 mg/m2, Group 2, 100 mg/m^2 IV, Day 1, mean, n = 3, read-out: T1/2 (converted)): 37.3 h | Cmax [20]: 1090 ng/mL | Tmax [20]: 0.508 h | Cmax [21]: 804 ng/mL | Tmax [21]: 0.7 h | Vd [21]: 1850 L | AUC(0-inf) (iv, 100 mg/m2, Group 2, 100 mg/m^2 IV, Day 8, mean, n = 3, read-out: AUC∞): 9160 ng·h/mL | half-life (iv, 100 mg/m2, Group 2, 100 mg/m^2 IV, Day 8, mean, n = 3, read-out: T1/2 (converted)): 60.4 h | Cmax [22]: 1230 ng/mL | Tmax [22]: 0.65 h | Vd [22]: 900 L | clearance [22]: 252 mL/min | AUC(0-inf) (iv, 150 mg/m2, Group 3, 150 mg/m^2 IV, Day 1, mean, n = 4, read-out: AUC∞): 20000 ng·h/mL | half-life (iv, 150 mg/m2, Group 3, 150 mg/m^2 IV, Day 1, mean, n = 4, read-out: T1/2 (converted)): 48.1 h | Cmax (iv, 150 mg/m2, Group 3, 150 mg/m^2 IV, Day 8, mean, n = 4): 1270 ng/mL
